Laboratory results as given in patent publication US20100292185A1, “BETA-LACTAMASE INHIBITORS” (priority 2009, published 2010).
pIC50: −log10 of the molar value.

What was measured:
SHV-5 β-lactamase = target: T1, SHV-5 β-lactamase (Klebsiella pneumoniae, UniProt P0A3M1); experiment: β-lactamase enzyme inhibition assay (nitrocefin substrate), SHV-5; type: biochemical; details: nitrocefin 100 μM, 37° C., PBS pH 7.0; read-out: SHV-5 IC50
T1 construct: expressed as native untagged proteins; made in house; host or cells: E. coli BL21(DE3)
Outline: (§1)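 Enzyme was first mixed with serially diluted compound (100 to 0.005 μM) in PBS pH 7.0 and held 10 min at 37 °C. Next, nitrocefin was dispensed to 100 μM final, and hydrolysis was followed at 486 nm for 10 min. Percent inhibition was then calculated from maximum rates and fitted to an IC50.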

CTX-M15 β-lactamase = target: T2, CTX-M15 β-lactamase (Escherichia coli, UniProt Q9EXV5); experiment: β-lactamase enzyme inhibition assay (nitrocefin substrate), CTXM-15; type: biochemical; details: nitrocefin 100 μM, 37° C., PBS pH 7.0; read-out: CTXM-15 IC50
T2 construct: expressed as native untagged proteins; made in house; host or cells: E. coli BL21(DE3)
Outline: as §1

p99 AmpC β-lactamase = target: T3, p99 AmpC β-lactamase (Enterobacter cloacae, UniProt P05364); experiment: β-lactamase enzyme inhibition assay (nitrocefin substrate), P99 AmpC; type: biochemical; details: nitrocefin 100 μM, 37° C., PBS pH 7.0; read-out: P99 AmpC IC50
T3 construct: expressed as native untagged proteins; made in house; host or cells: E. coli BL21(DE3)
Outline: as §1

KPC-2 β-lactamase = target: T4, KPC-2 β-lactamase (Klebsiella pneumoniae, UniProt Q9F663); experiment: β-lactamase enzyme inhibition assay (nitrocefin substrate), KPC-2; type: biochemical; details: nitrocefin 100 μM, 37° C., PBS pH 7.0; read-out: KPC-2 IC50
T4 construct: expressed as native untagged proteins; made in house; host or cells: E. coli BL21(DE3)
Outline: as §1

[1] = target: T5, VIM-2 metallo β-lactamase (Pseudomonas aeruginosa, UniProt Q9K2N0); experiment: β-lactamase enzyme inhibition assay (nitrocefin substrate), VIM-2; type: biochemical; details: nitrocefin 100 μM, 37° C., PBS pH 7.0; read-out: VIM-2 IC50
T5 construct: made in house
Outline: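 VIM-2 was expressed untagged in E. coli BL21(DE3) and purified by two Q sepharose anion-exchange runs plus gel filtration to >90% purity. Compounds at 100–0.005 μM in PBS pH 7.0 were preincubated with enzyme for 10 min at 37° C, then nitrocefin was added at 100 μM final. Hydrolysis was followed kinetically at 486 nm for 10 min; IC50 is the concentration halving the initial rate relative to no-inhibitor wells.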

OXA-23 β-lactamase = target: T6, OXA-23 β-lactamase (Acinetobacter baumannii, UniProt Q9L4P2); experiment: β-lactamase enzyme inhibition assay (nitrocefin substrate), OXA-23 crude extract; type: biochemical; details: nitrocefin 100 μM, 37° C., PBS pH 7.0; read-out: OXA-23 IC50
T6 construct: crude β-lactamase extracts were prepared from 20 ml overnight cultures; endogenous in cells; host or cells: Acinetobacter baumannii cells containing OXA-23 (crude freeze-thaw extract)
Outline: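 Crude enzyme came from freeze-thaw extracts of mid-log OXA-23-carrying A. baumannii grown in MH-II broth at 37° C. Inhibitors (100–0.005 μM in PBS pH 7.0) were preincubated with the enzyme for 10 min at 37° C, then 100 μM nitrocefin (final) was added and read kinetically at 486 nm for 10 min. IC50 was taken from initial hydrolysis rates relative to uninhibited controls.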

[2] = system: E. coli expressing the Class A ESBL SHV-5; experiment: In vitro antibacterial assay of β-lactamase inhibition (broth microdilution MIC), E. coli SHV-5; type: cell-based; details: in presence of Ceftazidime 8 μg/ml (Examples 1-56)
Outline: (§2)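 MIC read by eye after 16-20 h at 37° C. Compounds were titrated 2-fold from 8 μg/mL down to 0.015 μg/mL (final) in CAMHB with a β-lactam antibiotic, and wells were inoculated per CLSI with strains grown 3-5 h under 50 μg/mL ampicillin.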

[3] = system: K. pneumoniae expressing the Class A Extended Spectrum Beta-Lactamase (ESBL) CTX-M-15; experiment: In vitro antibacterial assay of β-lactamase inhibition (broth microdilution MIC), K. pneumoniae CTX-M-15; type: cell-based; details: in presence of Ceftazidime 8 μg/ml (Examples 1-56)
Outline: as §2

[4] = system: E. cloacae expressing the Class C P99+; experiment: In vitro antibacterial assay of β-lactamase inhibition (broth microdilution MIC), E. cloacae P99+; type: cell-based; details: in presence of Ceftazidime 8 μg/ml (Examples 1-56)
Outline: as §2

[5] = system: K. pneumoniae expressing the Class A carbapenemase KPC-2; experiment: microbe, parasite or virus in culture; type: cell-based; details: in presence of Ceftazidime 8 μg/ml (Examples 1-56)
Outline: as §2

[6] = system: P. aeruginosa expressing the Class B metallo β-lactamase VIM-2; experiment: In vitro antibacterial assay of β-lactamase inhibition (broth microdilution MIC), P. aeruginosa VIM-2; type: cell-based; details: in presence of Ceftazidime 16 μg/mL (Examples 1-56)
Outline: as §2

T4 sequence (Q9F663 25-293 limits assumed): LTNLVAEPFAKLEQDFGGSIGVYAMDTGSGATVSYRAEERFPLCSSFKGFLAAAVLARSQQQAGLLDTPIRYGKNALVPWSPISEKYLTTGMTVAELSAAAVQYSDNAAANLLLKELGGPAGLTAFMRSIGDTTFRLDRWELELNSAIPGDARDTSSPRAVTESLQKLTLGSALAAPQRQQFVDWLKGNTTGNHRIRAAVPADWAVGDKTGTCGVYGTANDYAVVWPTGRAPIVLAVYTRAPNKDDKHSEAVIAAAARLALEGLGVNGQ
T2 sequence (Q9EXV5 entry or part of it): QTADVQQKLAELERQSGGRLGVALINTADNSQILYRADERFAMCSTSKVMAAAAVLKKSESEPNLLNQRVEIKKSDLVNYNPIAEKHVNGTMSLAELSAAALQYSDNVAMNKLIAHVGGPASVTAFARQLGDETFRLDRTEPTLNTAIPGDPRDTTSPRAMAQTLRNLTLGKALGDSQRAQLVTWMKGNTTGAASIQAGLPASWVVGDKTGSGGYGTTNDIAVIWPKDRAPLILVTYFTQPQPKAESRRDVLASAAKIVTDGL
T1 sequence (P0A3M1 22-286): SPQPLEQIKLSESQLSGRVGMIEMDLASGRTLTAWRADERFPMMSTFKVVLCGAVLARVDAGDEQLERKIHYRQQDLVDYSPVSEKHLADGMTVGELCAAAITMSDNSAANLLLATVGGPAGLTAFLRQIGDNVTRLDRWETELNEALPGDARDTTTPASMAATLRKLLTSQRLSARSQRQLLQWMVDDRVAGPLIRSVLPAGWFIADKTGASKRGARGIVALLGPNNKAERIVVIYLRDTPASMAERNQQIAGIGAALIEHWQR
T3 sequence (P05364 21-381): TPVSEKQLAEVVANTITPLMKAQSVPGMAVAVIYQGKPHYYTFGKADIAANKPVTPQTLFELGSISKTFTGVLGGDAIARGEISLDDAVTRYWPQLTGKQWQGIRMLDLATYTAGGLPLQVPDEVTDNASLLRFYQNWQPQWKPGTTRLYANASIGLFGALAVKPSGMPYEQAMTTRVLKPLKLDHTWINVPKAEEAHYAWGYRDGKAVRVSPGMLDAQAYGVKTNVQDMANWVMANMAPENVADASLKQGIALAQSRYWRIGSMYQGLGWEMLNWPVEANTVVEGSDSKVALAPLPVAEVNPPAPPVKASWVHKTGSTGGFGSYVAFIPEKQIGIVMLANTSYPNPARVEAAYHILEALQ
T6 sequence (Q9L4P2 18-273): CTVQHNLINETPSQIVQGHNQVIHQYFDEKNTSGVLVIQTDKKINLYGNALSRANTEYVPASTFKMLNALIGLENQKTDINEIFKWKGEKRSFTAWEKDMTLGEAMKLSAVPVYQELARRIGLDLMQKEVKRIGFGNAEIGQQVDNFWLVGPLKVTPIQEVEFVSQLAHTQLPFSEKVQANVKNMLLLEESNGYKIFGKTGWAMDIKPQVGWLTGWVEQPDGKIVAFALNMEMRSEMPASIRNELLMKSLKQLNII

Row | Substance | pIC50 (SHV-5 β-lactamase) | pIC50 (CTX-M15 β-lactamase) | pIC50 (p99 AmpC β-lactamase) | pIC50 (KPC-2 β-lactamase) | pIC50 [1] | pIC50 (OXA-23 β-lactamase) | MIC of example compound, E. coli SHV-5 [2] [µg/mL] | MIC of example compound, K. pneumoniae CTX-M-15 [3] [µg/mL] | MIC of example compound, E. cloacae P99+ [4] [µg/mL] | MIC of example compound, K. pneumoniae KPC-2 [5] [µg/mL] | MIC of example compound, P. aeruginosa VIM-2 [6] [µg/mL]
1 | (1R)-[3-{(2-hydroxy-ethylamino)-methyl}-benzoylamino]-(3-carboxy-2-hydroxy)benzyl-methylboronic acid formate [Example 43] | 8.40 | 7.92 | 8.05 | 7.15 | 6.74 | 7.42 | 2 | 0.5 | 0.5 | <0.015 | >8
2 | (2R)-3-[(2-[(2-chloro-pyridin-4-yl-acetyl)-amino]-2-borono-ethyl]-2-hydroxy-benzoic acid hydrochloride [Example 47] | 9.00 | 8.70 | 8.30 | 8.70 | < 6.00 | 6.88 | 0.25 | 0.25 | 1 | 0.03 | >8
